The kinase profiling compilation of Christmann-Franck et al. (2016)

Columns and labels:
Test in all cases: radiometric filter-binding kinase assay, Kinase HotSpot
Settings in all cases: compound 0.5 µM; ATP 10 µM
ADRBK2 (human) = ADRBK2 (human) (UniProt P35626)
CAMK1 (human) = CAMK1 (human) (UniProt Q14012)
CAMK1D (human) = CAMK1D (human) (UniProt Q8IU85)
CAMK2A (human) = CAMK2A (human) (UniProt Q9UQM7)
CAMK2B (human) = CAMK2B (human) (UniProt Q13554)
CDC42BPA (human) = CDC42BPA (human) (UniProt Q5VT25)
CDK1 CCNB1 (human) = CDK1 CCNB1 (human) (UniProt P06493+P14635)
CDK2 CCNA2 (human) = CDK2 CCNA2 (human) (UniProt P24941+P20248)
CSNK1D (human) = CSNK1D (human) (UniProt P48730)
Sequence of CSNK1D (human) (P48730 whole entry, looked up): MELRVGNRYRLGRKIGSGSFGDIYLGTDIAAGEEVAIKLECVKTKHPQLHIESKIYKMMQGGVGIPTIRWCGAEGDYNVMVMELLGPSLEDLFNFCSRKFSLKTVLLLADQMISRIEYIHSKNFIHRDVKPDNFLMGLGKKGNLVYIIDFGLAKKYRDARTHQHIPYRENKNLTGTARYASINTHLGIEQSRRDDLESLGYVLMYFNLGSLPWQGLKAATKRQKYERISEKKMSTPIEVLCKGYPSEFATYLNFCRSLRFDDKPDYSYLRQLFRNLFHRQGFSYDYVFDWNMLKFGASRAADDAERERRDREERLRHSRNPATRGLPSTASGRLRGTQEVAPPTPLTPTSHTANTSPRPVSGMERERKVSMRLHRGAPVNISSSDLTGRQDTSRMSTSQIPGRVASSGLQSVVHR

CSNK1G1 (human) = CSNK1G1 (human) (UniProt Q9HCP0)
CSNK1G3 (human) = CSNK1G3 (human) (UniProt Q9Y6M4)
EPHA3 (human) = EPHA3 (human) (UniProt P29320)
Sequence of EPHA3 (human) (P29320 whole entry, looked up): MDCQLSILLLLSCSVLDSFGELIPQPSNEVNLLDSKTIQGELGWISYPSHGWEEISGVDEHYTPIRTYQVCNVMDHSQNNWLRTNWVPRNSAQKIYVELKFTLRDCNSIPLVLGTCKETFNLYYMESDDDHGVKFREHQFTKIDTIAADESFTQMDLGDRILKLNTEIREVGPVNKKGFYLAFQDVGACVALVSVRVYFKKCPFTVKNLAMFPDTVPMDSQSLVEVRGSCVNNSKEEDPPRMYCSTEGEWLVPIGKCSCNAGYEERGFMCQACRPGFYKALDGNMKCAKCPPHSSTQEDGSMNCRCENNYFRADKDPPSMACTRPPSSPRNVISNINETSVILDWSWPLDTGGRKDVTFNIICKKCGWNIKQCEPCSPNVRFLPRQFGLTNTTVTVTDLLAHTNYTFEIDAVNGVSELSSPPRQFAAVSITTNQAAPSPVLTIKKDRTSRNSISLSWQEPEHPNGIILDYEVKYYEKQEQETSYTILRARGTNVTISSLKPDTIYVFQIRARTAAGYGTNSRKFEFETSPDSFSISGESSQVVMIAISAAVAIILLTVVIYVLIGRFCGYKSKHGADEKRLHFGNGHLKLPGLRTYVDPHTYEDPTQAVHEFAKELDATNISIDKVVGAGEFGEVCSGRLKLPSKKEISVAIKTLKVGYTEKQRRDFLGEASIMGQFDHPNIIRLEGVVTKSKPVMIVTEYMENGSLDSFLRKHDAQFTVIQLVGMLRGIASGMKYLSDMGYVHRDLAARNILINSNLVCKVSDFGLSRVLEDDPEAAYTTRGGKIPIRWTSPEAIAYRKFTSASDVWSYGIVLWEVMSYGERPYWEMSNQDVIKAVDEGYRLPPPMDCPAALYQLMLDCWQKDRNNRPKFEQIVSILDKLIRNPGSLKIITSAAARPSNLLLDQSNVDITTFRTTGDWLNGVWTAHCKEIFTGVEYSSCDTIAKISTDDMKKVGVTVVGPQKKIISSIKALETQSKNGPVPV

EPHA4 (human) = EPHA4 (human) (UniProt P54764)
EPHA7 (human) = EPHA7 (human) (UniProt Q15375)
EPHB2 (human) = EPHB2 (human) (UniProt P29323)
Sequence of EPHB2 (human) (P29323 whole entry, looked up): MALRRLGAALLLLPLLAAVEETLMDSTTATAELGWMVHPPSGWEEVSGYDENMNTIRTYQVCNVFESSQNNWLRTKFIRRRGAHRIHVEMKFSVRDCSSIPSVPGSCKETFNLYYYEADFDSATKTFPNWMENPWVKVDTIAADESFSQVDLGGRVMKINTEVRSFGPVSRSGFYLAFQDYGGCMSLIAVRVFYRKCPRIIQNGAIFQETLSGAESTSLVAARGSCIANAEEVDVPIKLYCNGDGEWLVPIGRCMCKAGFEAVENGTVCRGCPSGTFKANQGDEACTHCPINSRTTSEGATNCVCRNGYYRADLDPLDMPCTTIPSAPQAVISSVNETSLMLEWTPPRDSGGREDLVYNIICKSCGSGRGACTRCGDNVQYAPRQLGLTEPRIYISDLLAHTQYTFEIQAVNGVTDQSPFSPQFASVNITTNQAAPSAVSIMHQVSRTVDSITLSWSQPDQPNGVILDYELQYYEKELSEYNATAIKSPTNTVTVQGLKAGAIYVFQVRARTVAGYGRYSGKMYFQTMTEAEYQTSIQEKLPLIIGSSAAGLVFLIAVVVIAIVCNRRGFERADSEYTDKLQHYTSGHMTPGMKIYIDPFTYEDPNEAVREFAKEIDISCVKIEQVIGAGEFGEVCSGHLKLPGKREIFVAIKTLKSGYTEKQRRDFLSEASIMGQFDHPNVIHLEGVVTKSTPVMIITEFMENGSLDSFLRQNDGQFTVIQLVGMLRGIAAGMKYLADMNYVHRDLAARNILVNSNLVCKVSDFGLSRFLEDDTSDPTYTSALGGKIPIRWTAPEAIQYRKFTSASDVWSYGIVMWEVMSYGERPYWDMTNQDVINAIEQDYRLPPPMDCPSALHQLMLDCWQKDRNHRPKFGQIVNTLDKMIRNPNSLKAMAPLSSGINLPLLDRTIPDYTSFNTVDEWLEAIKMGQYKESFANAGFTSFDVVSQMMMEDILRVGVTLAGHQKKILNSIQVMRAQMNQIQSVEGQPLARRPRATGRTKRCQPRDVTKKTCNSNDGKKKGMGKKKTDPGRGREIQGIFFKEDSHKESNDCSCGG

ERBB4 (human) = ERBB4 (human) (UniProt Q15303)
FER (human) = FER (human) (UniProt P16591)
Sequence of FER (human) (P16591 whole entry, looked up): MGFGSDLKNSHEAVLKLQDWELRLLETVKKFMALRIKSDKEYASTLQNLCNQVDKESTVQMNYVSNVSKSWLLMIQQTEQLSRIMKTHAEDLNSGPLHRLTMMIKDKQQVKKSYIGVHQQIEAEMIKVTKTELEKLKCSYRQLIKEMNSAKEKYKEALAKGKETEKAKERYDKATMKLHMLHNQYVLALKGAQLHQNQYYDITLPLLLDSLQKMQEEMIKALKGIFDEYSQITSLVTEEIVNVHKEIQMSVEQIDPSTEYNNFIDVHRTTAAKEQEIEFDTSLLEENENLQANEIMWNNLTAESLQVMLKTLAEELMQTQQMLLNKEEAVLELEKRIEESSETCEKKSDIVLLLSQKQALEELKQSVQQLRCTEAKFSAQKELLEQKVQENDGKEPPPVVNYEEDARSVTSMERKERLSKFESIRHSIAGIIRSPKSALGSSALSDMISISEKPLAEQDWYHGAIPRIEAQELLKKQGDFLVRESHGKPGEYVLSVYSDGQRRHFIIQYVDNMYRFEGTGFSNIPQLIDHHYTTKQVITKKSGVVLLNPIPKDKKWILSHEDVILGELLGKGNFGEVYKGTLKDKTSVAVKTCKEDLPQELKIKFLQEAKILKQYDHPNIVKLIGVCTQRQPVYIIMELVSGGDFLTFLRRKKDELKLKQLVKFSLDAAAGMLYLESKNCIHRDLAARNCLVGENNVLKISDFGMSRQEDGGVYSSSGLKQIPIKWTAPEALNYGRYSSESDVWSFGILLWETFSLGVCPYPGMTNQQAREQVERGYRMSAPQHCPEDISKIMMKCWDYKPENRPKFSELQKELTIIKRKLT

FGFR2 (human) = FGFR2 (human) (UniProt P21802)
FRK (human) = FRK (human) (UniProt P42685)
HIPK1 (human) = HIPK1 (human) (UniProt Q86Z02)
HIPK4 (human) = HIPK4 (human) (UniProt Q8NE63)
IGF1R (human) = IGF1R (human) (UniProt P08069)
LTK (human) = LTK (human) (UniProt P29376)
MAP3K2 (human) = MAP3K2 (human) (UniProt Q9Y2U5)
MAP4K2 (human) = MAP4K2 (human) (UniProt Q12851)
MAPK11 (human) = MAPK11 (human) (UniProt Q15759)
Sequence of MAPK11 (human) (Q15759 whole entry, looked up): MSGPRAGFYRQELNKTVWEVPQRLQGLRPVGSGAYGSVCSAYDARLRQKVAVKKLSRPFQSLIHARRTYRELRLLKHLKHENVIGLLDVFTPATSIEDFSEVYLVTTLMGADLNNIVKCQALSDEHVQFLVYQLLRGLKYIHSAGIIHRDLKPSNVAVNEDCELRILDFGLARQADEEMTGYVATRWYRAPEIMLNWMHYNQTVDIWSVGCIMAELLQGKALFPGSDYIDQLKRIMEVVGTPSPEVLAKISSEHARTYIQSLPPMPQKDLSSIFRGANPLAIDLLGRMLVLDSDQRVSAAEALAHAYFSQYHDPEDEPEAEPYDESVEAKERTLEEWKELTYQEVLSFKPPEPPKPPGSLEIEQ

MAPK12 (human) = MAPK12 (human) (UniProt P53778)
MAPK14 (human) = MAPK14 (human) (UniProt Q16539)
Sequence of MAPK14 (human) (Q16539 whole entry, looked up): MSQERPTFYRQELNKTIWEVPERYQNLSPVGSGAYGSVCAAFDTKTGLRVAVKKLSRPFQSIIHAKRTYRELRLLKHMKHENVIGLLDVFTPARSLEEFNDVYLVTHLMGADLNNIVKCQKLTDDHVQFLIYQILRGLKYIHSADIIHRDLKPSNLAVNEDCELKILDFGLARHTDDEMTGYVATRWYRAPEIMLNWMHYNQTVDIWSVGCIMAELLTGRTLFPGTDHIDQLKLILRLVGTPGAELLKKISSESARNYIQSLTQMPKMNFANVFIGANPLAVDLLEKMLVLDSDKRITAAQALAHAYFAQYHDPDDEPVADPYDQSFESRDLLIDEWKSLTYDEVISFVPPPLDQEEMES

MAPKAPK5 (human) = MAPKAPK5 (human) (UniProt Q8IW41)
MYLK (human) = MYLK (human) (UniProt Q15746)
NTRK2 (human) = NTRK2 (human) (UniProt Q16620)
PDPK1 (human) = PDPK1 (human) (UniProt O15530)
PNCK (human) = PNCK (human) (UniProt Q6P2M8)
Sequence of PNCK (human) (Q6P2M8 whole entry, looked up): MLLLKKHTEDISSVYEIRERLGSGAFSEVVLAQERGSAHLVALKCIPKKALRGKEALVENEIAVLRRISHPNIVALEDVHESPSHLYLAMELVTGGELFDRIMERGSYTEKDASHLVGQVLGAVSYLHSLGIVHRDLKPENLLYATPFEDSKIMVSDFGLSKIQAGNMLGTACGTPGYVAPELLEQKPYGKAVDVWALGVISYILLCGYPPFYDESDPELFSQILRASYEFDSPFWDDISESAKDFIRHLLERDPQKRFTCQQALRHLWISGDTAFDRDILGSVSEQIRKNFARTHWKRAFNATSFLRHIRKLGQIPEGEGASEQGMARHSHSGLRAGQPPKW

RIPK2 (human) = RIPK2 (human) (UniProt O43353)
SGK3 (human) = SGK3 (human) (UniProt Q96BR1)
SLK (human) = SLK (human) (UniProt Q9H2G2)
STK24 (human) = STK24 (human) (UniProt Q9Y6E0)
STK3 (human) = STK3 (human) (UniProt Q13188)
TAOK2 (human) = TAOK2 (human) (UniProt Q9UL54)
TGFBR1 (human) = TGFBR1 (human) (UniProt P36897)
[1] = target: TYK2 JH1 catalytic (human) (UniProt P29597)
ULK1 (human) = ULK1 (human) (UniProt O75385)

Sequence of ADRBK2 (human) (P35626 whole entry, looked up): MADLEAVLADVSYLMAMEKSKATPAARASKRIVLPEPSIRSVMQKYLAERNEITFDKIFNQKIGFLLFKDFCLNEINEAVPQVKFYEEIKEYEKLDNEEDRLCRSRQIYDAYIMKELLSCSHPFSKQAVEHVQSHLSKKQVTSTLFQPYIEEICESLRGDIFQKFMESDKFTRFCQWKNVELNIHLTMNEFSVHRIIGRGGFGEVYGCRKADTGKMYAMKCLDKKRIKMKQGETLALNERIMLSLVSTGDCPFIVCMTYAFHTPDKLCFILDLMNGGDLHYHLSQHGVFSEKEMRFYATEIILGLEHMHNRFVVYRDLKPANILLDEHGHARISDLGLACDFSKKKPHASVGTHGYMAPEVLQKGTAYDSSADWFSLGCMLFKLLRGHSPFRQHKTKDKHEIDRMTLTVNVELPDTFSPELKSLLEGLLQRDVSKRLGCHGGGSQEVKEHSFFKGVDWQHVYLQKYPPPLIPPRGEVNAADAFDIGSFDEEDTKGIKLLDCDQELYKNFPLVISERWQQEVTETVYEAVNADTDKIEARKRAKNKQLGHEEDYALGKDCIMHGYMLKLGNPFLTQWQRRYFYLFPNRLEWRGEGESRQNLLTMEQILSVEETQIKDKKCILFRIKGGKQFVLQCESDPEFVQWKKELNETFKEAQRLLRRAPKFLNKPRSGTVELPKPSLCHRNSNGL

Clc1ccc(Nc2nnc(Cc3ccncc3)c3ccccc23)cc1
residual activity (ADRBK2 (human)): 92.9% | residual activity (CAMK1 (human)): 100% | residual activity (CAMK1D (human)): 108% | residual activity (CAMK2A (human)): 93.2% | residual activity (CAMK2B (human)): 109% | residual activity (CDC42BPA (human)): 78.3% | residual activity (CDK1 CCNB1 (human)): 104% | residual activity (CDK2 CCNA2 (human)): 87.7% | residual activity (CSNK1D (human)): 92.2% | residual activity (CSNK1G1 (human)): 103% | residual activity (CSNK1G3 (human)): 100% | residual activity (EPHA3 (human)): 98.8% | residual activity (EPHA4 (human)): 102% | residual activity (EPHA7 (human)): 90.5% | residual activity (EPHB2 (human)): 107% | residual activity (ERBB4 (human)): 104% | residual activity (FER (human)): 91.4% | residual activity (FGFR2 (human)): 96% | residual activity (FRK (human)): 95.4% | residual activity (HIPK1 (human)): 99.2% | residual activity (HIPK4 (human)): 95.9% | residual activity (IGF1R (human)): 108% | residual activity (LTK (human)): 105% | residual activity (MAP3K2 (human)): 126% | residual activity (MAP4K2 (human)): 107% | residual activity (MAPK11 (human)): 96.9% | residual activity (MAPK12 (human)): 96.8% | residual activity (MAPK14 (human)): 98.2% | residual activity (MAPKAPK5 (human)): 97.8% | residual activity (MYLK (human)): 97.5% | residual activity (NTRK2 (human)): 102% | residual activity (PDPK1 (human)): 88.3% | residual activity (PNCK (human)): 103% | residual activity (RIPK2 (human)): 111% | residual activity (SGK3 (human)): 99.2% | residual activity (SLK (human)): 94.2% | residual activity (STK24 (human)): 98.7% | residual activity (STK3 (human)): 92.1% | residual activity (TAOK2 (human)): 85.4% | residual activity (TGFBR1 (human)): 96.8% | residual activity [1]: 89.4% | residual activity (ULK1 (human)): 107%

COc1cc2nccc(Oc3ccc(NC(=S)NC(=O)c4ccccc4C)cc3)c2cc1OC
residual activity (ADRBK2 (human)): 94.9% | residual activity (CAMK1 (human)): 101% | residual activity (CAMK1D (human)): 72.5% | residual activity (CAMK2A (human)): 85.6% | residual activity (CAMK2B (human)): 104% | residual activity (CDC42BPA (human)): 93.9% | residual activity (CDK1 CCNB1 (human)): 90.7% | residual activity (CDK2 CCNA2 (human)): 94.2% | residual activity (CSNK1D (human)): 212% | residual activity (CSNK1G1 (human)): 80.1% | residual activity (CSNK1G3 (human)): 93.3% | residual activity (EPHA3 (human)): 105% | residual activity (EPHA4 (human)): 81.4% | residual activity (EPHA7 (human)): 90.4% | residual activity (EPHB2 (human)): 93.5% | residual activity (ERBB4 (human)): 114% | residual activity (FER (human)): 58.2% | residual activity (FGFR2 (human)): 89% | residual activity (FRK (human)): 27.5% | residual activity (HIPK1 (human)): 100% | residual activity (HIPK4 (human)): 86% | residual activity (IGF1R (human)): 92.1% | residual activity (LTK (human)): 86.1% | residual activity (MAP3K2 (human)): 83.1% | residual activity (MAP4K2 (human)): 92.9% | residual activity (MAPK11 (human)): 89.3% | residual activity (MAPK12 (human)): 96.8% | residual activity (MAPK14 (human)): 80.2% | residual activity (MAPKAPK5 (human)): 99% | residual activity (MYLK (human)): 104% | residual activity (NTRK2 (human)): 102% | residual activity (PDPK1 (human)): 105% | residual activity (PNCK (human)): 93.2% | residual activity (RIPK2 (human)): 89.2% | residual activity (SGK3 (human)): 98.3% | residual activity (SLK (human)): 6.2% | residual activity (STK24 (human)): 101% | residual activity (STK3 (human)): 86% | residual activity (TAOK2 (human)): 91.9% | residual activity (TGFBR1 (human)): 98% | residual activity [1]: 88.5% | residual activity (ULK1 (human)): 95%

Cc1cc2ncc(-c3ccccc3)nc2cc1C
residual activity (ADRBK2 (human)): 87.4% | residual activity (CAMK1 (human)): 96.2% | residual activity (CAMK1D (human)): 100% | residual activity (CAMK2A (human)): 98.4% | residual activity (CAMK2B (human)): 101% | residual activity (CDC42BPA (human)): 81.2% | residual activity (CDK1 CCNB1 (human)): 108% | residual activity (CDK2 CCNA2 (human)): 99.3% | residual activity (CSNK1D (human)): 90.7% | residual activity (CSNK1G1 (human)): 85.7% | residual activity (CSNK1G3 (human)): 99% | residual activity (EPHA3 (human)): 109% | residual activity (EPHA4 (human)): 95.4% | residual activity (EPHA7 (human)): 96.6% | residual activity (EPHB2 (human)): 96.7% | residual activity (ERBB4 (human)): 96.4% | residual activity (FER (human)): 91% | residual activity (FGFR2 (human)): 108% | residual activity (FRK (human)): 99.1% | residual activity (HIPK1 (human)): 105% | residual activity (HIPK4 (human)): 120% | residual activity (IGF1R (human)): 86.8% | residual activity (LTK (human)): 90.3% | residual activity (MAP3K2 (human)): 105% | residual activity (MAP4K2 (human)): 113% | residual activity (MAPK11 (human)): 96.8% | residual activity (MAPK12 (human)): 87.3% | residual activity (MAPK14 (human)): 103% | residual activity (MAPKAPK5 (human)): 95.1% | residual activity (MYLK (human)): 102% | residual activity (NTRK2 (human)): 103% | residual activity (PDPK1 (human)): 103% | residual activity (PNCK (human)): 96.3% | residual activity (RIPK2 (human)): 98.3% | residual activity (SGK3 (human)): 101% | residual activity (SLK (human)): 91.9% | residual activity (STK24 (human)): 94.5% | residual activity (STK3 (human)): 98.9% | residual activity (TAOK2 (human)): 105% | residual activity (TGFBR1 (human)): 94.7% | residual activity [1]: 97.6% | residual activity (ULK1 (human)): 84.1%

O=c1cc(N2CCNCC2)oc2c(-c3ccccc3)cccc12
residual activity (ADRBK2 (human)): 97.4% | residual activity (CAMK1 (human)): 99.2% | residual activity (CAMK1D (human)): 82% | residual activity (CAMK2A (human)): 104% | residual activity (CAMK2B (human)): 108% | residual activity (CDC42BPA (human)): 107% | residual activity (CDK1 CCNB1 (human)): 106% | residual activity (CDK2 CCNA2 (human)): 104% | residual activity (CSNK1D (human)): 99.5% | residual activity (CSNK1G1 (human)): 103% | residual activity (CSNK1G3 (human)): 102% | residual activity (EPHA3 (human)): 88.5% | residual activity (EPHA4 (human)): 100% | residual activity (EPHA7 (human)): 102% | residual activity (EPHB2 (human)): 97.3% | residual activity (ERBB4 (human)): 104% | residual activity (FER (human)): 99.2% | residual activity (FGFR2 (human)): 98.9% | residual activity (FRK (human)): 105% | residual activity (HIPK1 (human)): 110% | residual activity (HIPK4 (human)): 96.9% | residual activity (IGF1R (human)): 103% | residual activity (LTK (human)): 96.9% | residual activity (MAP3K2 (human)): 105% | residual activity (MAP4K2 (human)): 87.6% | residual activity (MAPK11 (human)): 105% | residual activity (MAPK12 (human)): 92% | residual activity (MAPK14 (human)): 82.8% | residual activity (MAPKAPK5 (human)): 104% | residual activity (MYLK (human)): 105% | residual activity (NTRK2 (human)): 102% | residual activity (PDPK1 (human)): 110% | residual activity (PNCK (human)): 99.8% | residual activity (RIPK2 (human)): 82.9% | residual activity (SGK3 (human)): 111% | residual activity (SLK (human)): 105% | residual activity (STK24 (human)): 89.6% | residual activity (STK3 (human)): 102% | residual activity (TAOK2 (human)): 98.3% | residual activity (TGFBR1 (human)): 97.3% | residual activity [1]: 98.5% | residual activity (ULK1 (human)): 107%
